Assay results as given in patent publication US5773421A, “Antifungal fusacandins” (Abbott Laboratories, priority 1995, dated 1998).
In brackets after ≈: the same amount, converted by molar mass. Like-named read-outs stand apart in the source and are kept apart here.

Legend:
[1] = tested on: Aspergillus niger ATCC 164; assay: MIC by agar dilution method; assay type: cell-based
Description: (§1) Minimal inhibitory concentrations (MICs) were determined by an agar dilution method. The test compounds were serially diluted in MeOH and 0.2 mL portions were mixed with 20 mL of molten, cooled Sabouraud dextrose agar (Difco). Yeast cell inoculum was prepared by growing cultures on Sabouraud dextrose agar for 18 hours at 32° C. and suspending the cells in phosphate buffered saline. Filamentous fungi were grown under the same conditions for 4 days to obtain spores. The inoculum level for all cultures was adjusted to 10^4 cells using a Petroff-Hauser cell counter. The glutarimide antifungal compounds cycloheximide or amphotericin B were used as a control. Inoculated test plates were incubated at 32° C. and examined after 20 hours.

Candida albicans 579a = assay: MIC by agar dilution method; assay type: cell-based
Description: as §1

[2] = tested on: Candida albicans ATCC 102; assay: MIC by agar dilution method; assay type: cell-based; settings: ATCC102, 20 h
Description: as §1

[3] = tested on: Candida albicans ATCC 382; assay: MIC by agar dilution method; assay type: cell-based; settings: ATCC382, 20 h
Description: as §1

[4] = tested on: Candida albicans ATCC 623; assay: MIC by agar dilution method; assay type: cell-based
Description: as §1

Candida albicans CCH 442 = assay: MIC by agar dilution method; assay type: cell-based
Description: as §1

Candida kefyr ATTC 288 = assay: MIC by agar dilution method; assay type: cell-based; settings: Kluyveromyces marxianus, ATCC288, 20 h
Description: as §1

[5] = tested on: Candida tropicalis NRRL-Y-1; assay: MIC by agar dilution method; assay type: cell-based
Description: as §1

[6] = tested on: Cryptococcus albidus ATCC 341; assay: MIC by agar dilution method; assay type: cell-based; settings: Naganishia albida, ATCC341, Table 6b, 32° C., 20 hours
Description: as §1

[7] = tested on: Saccharomyces cereviseae GS1-36; assay: MIC by agar dilution method; assay type: cell-based
Description: as §1

[8] = tested on: Torulopsis glabrata ATCC 155; assay: MIC by agar dilution method; assay type: cell-based; settings: Nakaseomyces glabratus
Description: as §1

[9] = MIC by broth dilution assay; assay type: cell-based; settings: Table 6d, 2 ×10^5 organisms/mL; for MIC: 144 h, no sorbitol
Description: Minimal inhibitory concentrations (MICs) were determined by a broth dilution assay described by Frost, D., Brandt, K., Cugier, D., and Goldman, R. in J. Antibiotics 48: 306-310 (1995) which is incorporated herein by reference. The final concentration of cells was 2 ×10^5 organisms/mL.

(1,3)-β-Glucan Synthase = biological target: T1, (1,3)-β-Glucan Synthase (Candida albicans, UniProt O13428); assay: In vitro inhibition of (1,3)-β-glucan synthase activity, microsomal enzyme preparation; assay type: biochemical; settings: C. albicans CCH 442 microsomal enzyme
T1 construct: microsomal enzyme preparation C. albicans CCH 442; endogenous in cells; host or cells: Candida albicans CCH 442, microsomes
T1 sequence (O13428 1-1897): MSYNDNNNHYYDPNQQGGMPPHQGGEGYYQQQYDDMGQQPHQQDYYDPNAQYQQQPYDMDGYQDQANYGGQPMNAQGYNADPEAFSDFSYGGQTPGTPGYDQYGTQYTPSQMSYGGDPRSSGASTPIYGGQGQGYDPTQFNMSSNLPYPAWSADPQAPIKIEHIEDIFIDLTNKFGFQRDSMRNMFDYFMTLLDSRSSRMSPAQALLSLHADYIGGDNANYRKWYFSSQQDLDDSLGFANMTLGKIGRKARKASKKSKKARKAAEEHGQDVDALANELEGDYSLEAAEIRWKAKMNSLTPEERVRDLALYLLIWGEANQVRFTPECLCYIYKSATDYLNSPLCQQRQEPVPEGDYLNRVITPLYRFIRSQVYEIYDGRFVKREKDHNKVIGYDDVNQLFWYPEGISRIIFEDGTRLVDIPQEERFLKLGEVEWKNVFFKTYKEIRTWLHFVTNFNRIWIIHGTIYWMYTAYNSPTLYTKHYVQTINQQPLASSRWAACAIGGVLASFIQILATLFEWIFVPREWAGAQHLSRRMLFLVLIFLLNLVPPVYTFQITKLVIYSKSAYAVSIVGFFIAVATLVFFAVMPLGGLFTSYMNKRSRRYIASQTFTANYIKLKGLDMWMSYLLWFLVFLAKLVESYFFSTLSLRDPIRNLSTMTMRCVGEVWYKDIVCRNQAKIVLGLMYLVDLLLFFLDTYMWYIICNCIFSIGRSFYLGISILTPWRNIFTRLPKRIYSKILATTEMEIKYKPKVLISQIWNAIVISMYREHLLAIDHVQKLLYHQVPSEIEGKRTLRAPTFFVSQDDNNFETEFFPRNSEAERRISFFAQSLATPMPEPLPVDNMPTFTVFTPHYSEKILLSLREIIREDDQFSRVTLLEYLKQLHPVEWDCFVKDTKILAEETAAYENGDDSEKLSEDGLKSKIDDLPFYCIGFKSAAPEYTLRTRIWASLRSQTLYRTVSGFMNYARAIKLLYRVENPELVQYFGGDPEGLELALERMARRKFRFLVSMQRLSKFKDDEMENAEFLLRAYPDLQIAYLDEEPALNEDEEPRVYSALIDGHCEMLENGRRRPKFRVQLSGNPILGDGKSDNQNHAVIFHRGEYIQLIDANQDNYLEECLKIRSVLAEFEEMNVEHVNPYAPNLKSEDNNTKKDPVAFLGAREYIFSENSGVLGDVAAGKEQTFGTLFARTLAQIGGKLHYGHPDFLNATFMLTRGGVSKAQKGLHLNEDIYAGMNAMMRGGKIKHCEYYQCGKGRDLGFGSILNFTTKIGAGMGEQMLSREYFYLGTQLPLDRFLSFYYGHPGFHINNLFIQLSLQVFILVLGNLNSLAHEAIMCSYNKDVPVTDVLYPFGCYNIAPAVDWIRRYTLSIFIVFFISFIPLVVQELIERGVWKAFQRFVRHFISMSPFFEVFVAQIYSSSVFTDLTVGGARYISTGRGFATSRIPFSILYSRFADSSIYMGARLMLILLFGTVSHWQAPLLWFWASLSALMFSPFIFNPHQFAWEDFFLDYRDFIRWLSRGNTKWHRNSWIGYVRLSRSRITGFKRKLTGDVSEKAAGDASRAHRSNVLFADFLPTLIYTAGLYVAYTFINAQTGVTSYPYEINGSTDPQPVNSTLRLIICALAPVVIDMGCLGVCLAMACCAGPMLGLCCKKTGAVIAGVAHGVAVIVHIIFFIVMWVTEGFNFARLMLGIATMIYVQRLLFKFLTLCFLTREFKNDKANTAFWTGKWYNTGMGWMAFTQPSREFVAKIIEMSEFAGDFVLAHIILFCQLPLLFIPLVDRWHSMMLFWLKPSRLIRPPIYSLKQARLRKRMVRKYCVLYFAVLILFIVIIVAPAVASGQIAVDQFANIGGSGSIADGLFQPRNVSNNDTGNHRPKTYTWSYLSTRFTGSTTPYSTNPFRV
Description: The assay was conducted in a final volume of 100 μL of 2.0 mM UDP-[^14 C]-Glc (0.625 mCi/mmol), 1 mM EDTA, 8% (v/v) glycerol, 20 μM GTPgS, 0.5% Brij-35(v/v) or 0.8% BSA, 80 mM Tris/HCl, pH 7.75, and microsomal enzyme preparation C. albicans CCH 442 (100 μg of protein). A detailed description of this assay is described by Frost, D., Brandt, K. Capobioanco, and Goldman, R., Microbiology 140: 2239-2246 (1994) which is incorporated herein by reference.

[10] = tested on: Candida albicans ATCC 997; assay: MIC by agar dilution method; assay type: cell-based; settings: Candida albicans, ATCC997, 20 h
Description: as §1

[11] = tested on: Nocardia asteroides ATTC 9970; assay: MIC by agar dilution method; assay type: cell-based; settings: Nocardia asteroides, ATTC9970, 20 h
[12] = tested on: Streptococcus pyrogenes EES61; assay: MIC by agar dilution method; assay type: cell-based; settings: Streptococcus, EES61, 20 h
[13] = tested on: Streptococcus bovis A-5169; assay: MIC by agar dilution method; assay type: cell-based; settings: Streptococcus equinus, A5169, 20 h
[14] = tested on: Staphylococcus aureus ATTC 6538p; assay: MIC by agar dilution method; assay type: cell-based; settings: Staphylococcus aureus, ATTC6538P, 20 h
[15] = tested on: Candida albicans ATCC 10231; assay: MIC by agar dilution method; assay type: cell-based; settings: ATCC10231; Table 6c; I Candida albicans ATCC 10231; agar dilution; read-out: MIC I
Description: as §1

[16] = tested on: Candida albicans ATCC 38247; assay: MIC by agar dilution method; assay type: cell-based; settings: ATCC38247; Table 6c; IV Candida albicans ATCC 38247; agar dilution; read-out: MIC IV
Description: as §1

[17] = tested on: Candida albicans ATCC 62376; assay: MIC by agar dilution method; assay type: cell-based; settings: ATCC62376; Table 6c; V Candida albicans ATCC 62376; agar dilution; read-out: MIC V
Description: as §1

glucan synthase = biological target: T2, glucan synthase (Candida albicans, UniProt O13428); assay: Microtiter screen for inhibitors of (1,3)-β-glucan formation in cell free extracts; assay type: biochemical; settings: C. albicans microsomes, [14C]UDP-Glc, water-insoluble β-glucan product on filter
T2 construct: Microsomes isolated from mid-log phase grown yeast; endogenous in cells; host or cells: Candida albicans, mid-log phase yeast cells, microsomes
T2 sequence (O13428 1-1897): as above
Excerpt: The fungal cell wall serves as a protective barrier and is essential for viability in a hypotonic environment. (1,3)-β-Glucan is a component of the Candida albicans cell wall, and the enzyme that biosynthesizes this polymer, glucan synthase, is not present in higher eukaryotes. (Glucan synthase is an integral plasma membrane protein that catalyzes polymerization of uridine diphosphate-glucose (UDP-Glc) into β-glucan.) Accordingly, glucan synthase represents an ideal target for the development of antifungal agents.
A microtiter screen was established to detect inhibitors of (1 ,3)-β-glucan formation in C. albicans cell free extracts. Microsomes isolated from mid-log phase grown yeast were incubated with [^14 C]UDP-Glc, effectors and test compound (fusacandin A, Example 4). The formation of the water-insoluble β-glucan product was measured on a filter after removing the substrate with water washes.

[18] = Minimum inhibitory concentration (MIC) stated with the glucan synthase screen; assay type: cell-based; settings: organism not given
[19] = ATCC164, Table 6b, Aspergillus niger ATCC 164, agar dilution, 32° C., 20 hours, read-out: MIC
[20] = ATCC623, Table 6b, Candida albicans ATCC 623, agar dilution, 32° C., 20 hours, read-out: MIC
[21] = CCH442, Table 6b, Candida albicans CCH 442, agar dilution, 32° C., 20 hours, read-out: MIC
[22] = NRRLY1, Table 6b, Candida tropicalis NRRL Y-1, agar dilution, 32° C., 20 hours, read-out: MIC
[23] = GS136, Table 6b, Saccharomyces cereviseae GS1-36, agar dilution, 32° C., 20 hours, read-out: MIC
[24] = ATCC155, Table 6b, Torulopsis glabrata ATCC 155, agar dilution, 32° C., 20 hours, read-out: MIC
[25] = Table 6c, II Candida albicans 579a, agar dilution, read-out: MIC II
[26] = CCH442, Table 6c, 3rd value column (head printed II), III Candida albicans CCH 442, agar dilution, read-out: MIC II

Row | Structure (SMILES) | MIC [1, 19] [µg/mL] | MIC (Candida albicans 579a; Candida albicans, 579A, 20 h) [µg/mL] | MIC [2] [µg/mL] | MIC [3] [µg/mL] | MIC [4, 20] [µg/mL] | MIC (Candida albicans CCH 442; [21]) [µg/mL] | MIC (Candida kefyr ATTC 288) [µg/mL] | MIC [5, 22] [µg/mL] | MIC [6] [µg/mL] | MIC [7, 23] [µg/mL] | MIC [8, 24] [µg/mL] | MIC [9] [µg/mL] | MIC (Candida albicans 579a; [25]) [µg/mL] | MIC [15] [µg/mL] | MIC [16] [µg/mL] | MIC [17] [µg/mL] | MIC (Candida albicans CCH 442; [26]) [µg/mL] | other results
1 | C[C@@H]1[C@H](O)[C@@H](C)/C=C/C=C/C=C/C=C/C=C/C=C/C=C/[C@H](O[C@@H]2O[C@H](C)[C@@H](O)[C@H](N)[C@@H]2O)C[C@@H]2O[C@](O)(C[C@@H](O)C[C@@H](O)[C@H](O)CC[C@@H](O)C[C@@H](O)CC(=O)O[C@H]1C)C[C@H](O)[C@H]2C(=O)O [Amphotericin B, amphotericin B, reference compound] | 1.56 (≈ 1.69 µM) | 1.56 (≈ 1.69 µM) | 1.56 (≈ 1.69 µM) | 50 (≈ 54.1 µM) | 1.56 (≈ 1.69 µM) | 1.56 (≈ 1.69 µM) | 1.56 (≈ 1.69 µM) | 1.56 (≈ 1.69 µM) | 3.12 (≈ 3.38 µM) | 1.56 (≈ 1.69 µM) | 1.56 (≈ 1.69 µM) | 0.24 (≈ 0.26 µM) | – | – | – | – | – | –
2 | CC/C=C/C/C=C\C=C\C(=O)OC[C@H]1O[C@@H](O[C@H]2[C@H](OC(=O)/C=C/C=C/CC(O)/C=C/C=C/CCCCC)[C@@H](O)[C@H](c3c(O)cc(O)cc3CO)O[C@@H]2CO)[C@H](O[C@@H]2O[C@H](CO)[C@H](O)[C@H](O)[C@H]2O)[C@@H](O)[C@H]1O (stereo partly shown) [Example 9, fusacandin C] | – | – | – | – | – | – | – | – | – | – | – | 1.95 (≈ 1.91 µM) | – | – | – | – | – | IC50 ((1,3)-β-Glucan Synthase; 0.5% Brij-35, read-out: IC50 With Brij-35 (converted)): 35 µM; IC50 ((1,3)-β-Glucan Synthase; 0.8% BSA, read-out: IC50 With BSA (converted)): 194 µM
3 | C[C@@H]1C[C@@H]([C@H](O)CC2CC(=O)NC(=O)C2)C(=O)[C@@H](C)C1 [Cycloheximide, cycloheximide, reference compound] | – | – | – | – | – | – | – | – | – | – | – | – | – | – | – | – | – | MIC ([1]; Aspergillus niger, ATCC164, 20 h): 1.6 µg/mL (≈ 5.69 µM); MIC ([4]; Candida albicans, ATCC623, 20 h): > 100 µg/mL; MIC [10]: > 100 µg/mL; MIC (Candida albicans CCH 442; Candida albicans, CCH442, 20 h): > 100 µg/mL; MIC ([5]; Candida tropicalis, NRRLY1, 20 h): 0.4 µg/mL (≈ 1.42 µM); MIC ([7]; Saccharomyces, GS136, 20 h): < 0.05 µg/mL; MIC ([8]; ATCC155, 20 h): 0.4 µg/mL (≈ 1.42 µM); MIC [11]: 1.6 µg/mL (≈ 5.69 µM); MIC [12]: 50 µg/mL (≈ 178 µM); MIC [13]: 25 µg/mL (≈ 88.9 µM); MIC [14]: 0.8 µg/mL (≈ 2.84 µM)
4 | CCCCC/C=C/C=C/C(O)C/C=C/C=C/C(=O)O[C@@H]1[C@@H](O)[C@H](c2c(O)cc(O)cc2CO)O[C@H](CO)[C@H]1O[C@@H]1O[C@H](CO)[C@H](O)[C@H](O)[C@H]1O[C@@H]1O[C@H](CO)[C@H](O)[C@H](O)[C@H]1O (stereo partly shown) [Example 7, fusacandin B] | > 100 | 50 (≈ 57.3 µM) | 50 (≈ 57.3 µM) | > 100 | 100 (≈ 115 µM) | 50 (≈ 57.3 µM) | 100 (≈ 115 µM) | 50 (≈ 57.3 µM) | > 100 | 50 (≈ 57.3 µM) | 100 (≈ 115 µM) | – | 25 (≈ 28.6 µM) | 50 (≈ 57.3 µM) | > 100 | 50 (≈ 57.3 µM) | 25 (≈ 28.6 µM) | –
5 | CCC(O)/C=C/C=C/C=C/C(=O)OC[C@H]1O[C@@H](O[C@H]2[C@H](OC(=O)/C=C/C=C/CC(O)/C(C)=C/C=C/CCC(C)CC)[C@@H](O)[C@@]3(OCc4cc(O)cc(O)c43)O[C@@H]2CO)[C@H](O)[C@@H](O)[C@H]1O (stereo partly shown) [Papulacandin B, papulacandin B, reference compound] | – | – | – | – | – | – | – | – | – | – | – | – | – | – | – | – | – | MIC No sorbitol [9]: 0.48 µg/mL (≈ 0.533 µM); IC50 (glucan synthase): 3.6 µg/mL (≈ 4 µM); minimum inhibitory concentration (MIC) [18]: 1.0 µg/mL (≈ 1.11 µM); IC50 With Brij-35 ((1,3)-β-Glucan Synthase; 0.5% Brij-35): 0.8 µg/mL (≈ 0.888 µM); IC50 With BSA ((1,3)-β-Glucan Synthase; 0.8% BSA): 16.3 µg/mL (≈ 18.1 µM)
6 | CCCCC/C=C/C=C/[C@@H](O)C/C=C/C=C/C(=O)O[C@@H]1[C@@H](O)[C@H](c2c(O)cc(O)cc2CO)O[C@H](CO)[C@H]1O[C@@H]1O[C@H](COC(=O)/C=C/c2ccccc2)[C@H](O)[C@H](O)[C@H]1O[C@@H]1O[C@H](CO)[C@H](O)[C@H](O)[C@H]1O [Example 16] | – | – | – | – | – | – | – | – | – | – | – | – | 12.5 (≈ 12.5 µM) | 12.5 (≈ 12.5 µM) | 6.25 (≈ 6.23 µM) | 12.5 (≈ 12.5 µM) | 12.5 (≈ 12.5 µM) | –
